Data as given in ChEMBL document CHEMBL4837187, “Antimicrobial Benzyltetrahydroisoquinoline-Derived Alkaloids from the Leaves of Doryphora aromatica” (2021).

Tests used:
Type in all cases: functional
Staphylococcus aureus [1] = experiment: Antimicrobial activity against methicillin-resistant Staphylococcus aureus clinical isolate 2 assessed as microbial growth inhibition incubated for 16 hrs under aerobic condition by microplate reader assay
[2] = test system: Mycobacterium tuberculosis; experiment: Antimicrobial activity against Mycobacterium tuberculosis H37Rv assessed as microbial growth inhibition incubated for 16 hrs under aerobic condition by microplate reader assay
Staphylococcus aureus [3] = experiment: Antimicrobial activity against Staphylococcus aureus assessed as microbial growth inhibition incubated for 16 hrs under aerobic condition by microplate reader assay
[4] = test system: Mycolicibacterium smegmatis; experiment: Antimicrobial activity against Mycobacterium smegmatis MC2 155 ATCC […] assessed as microbial growth inhibition incubated for 16 hrs under aerobic condition by microplate reader assay
Staphylococcus aureus [5] = experiment: Antimicrobial activity against methicillin-resistant Staphylococcus aureus clinical isolate 1 assessed as microbial growth inhibition incubated for 16 hrs under aerobic condition by microplate reader assay
Staphylococcus aureus [6] = experiment: Antimicrobial activity against methicillin-resistant Staphylococcus aureus clinical isolate 3 assessed as microbial growth inhibition incubated for 16 hrs under aerobic condition by microplate reader assay
Staphylococcus aureus [7] = experiment: Antimicrobial activity against methicillin-resistant Staphylococcus aureus clinical isolate 4 assessed as microbial growth inhibition incubated for 16 hrs under aerobic condition by microplate reader assay
Staphylococcus aureus [8] = experiment: Antimicrobial activity against methicillin-resistant Staphylococcus aureus clinical isolate 5 assessed as microbial growth inhibition incubated for 16 hrs under aerobic condition by microplate reader assay
[9] = test system: Mycobacterium tuberculosis; experiment: Antimicrobial activity against Mycobacterium tuberculosis MC2 6220 BSL2 assessed as microbial growth inhibition at 6.25 uM incubated for 16 hrs under aerobic condition by microplate reader assay relative to control; conditions: read-out: GI
[10] = test system: Mycobacterium tuberculosis; experiment: Antimicrobial activity against Mycobacterium tuberculosis MC2 6220 BSL2MIC assessed as microbial growth inhibition incubated for 16 hrs under aerobic condition by microplate reader assay
Escherichia coli = experiment: Antimicrobial activity against Escherichia coli assessed as microbial growth inhibition incubated for 16 hrs under aerobic condition by microplate reader assay

SMILES | MIC (Staphylococcus aureus [1]) [µM] | MIC [2] [µM] | MIC (Staphylococcus aureus [3]) [µM] | MIC [4] [µM] | MIC (Staphylococcus aureus [5]) [µM] | MIC (Staphylococcus aureus [6]) [µM] | MIC (Staphylococcus aureus [7]) [µM] | MIC (Staphylococcus aureus [8]) [µM] | inhibition of growth at 6.25 µM [9] [%] | MIC [10] [µM] | MIC (Escherichia coli) [µM]
COc1cc2c(cc1OC)[C@@H](Cc1ccc(Oc3cc(Cc4c5cc(OC)c(OC)cc5cc[n+]4C)ccc3OC)cc1)N(C)CC2 | 39.4 | > 100 | 39.4 | 39.4 | 39.4 | 19.7 | 39.4 | 19.7 | 70 | 12.5 | 158
COc1cc2cc[n+](C)c(O)c2cc1OC | – | – | > 100 | > 100 | – | – | – | – | – | – | > 100
COc1cc2cc[n+](C)c(Cc3ccc(Oc4cc(Cc5c6cc(OC)c(OC)cc6cc[n+]5C)ccc4OC)cc3)c2cc1OC | 39.6 | – | 9.9 | 158 | 9.9 | 39.6 | 9.9 | 9.9 | – | – | 39.6
COc1cc2cc[n+](C)c(Cc3ccc(OC)c(Oc4ccc(C=O)cc4)c3)c2cc1OC | – | – | > 100 | > 100 | – | – | – | – | – | – | > 100
COc1cc2cc[n+](C)c(Cc3ccc(Oc4cc(Cc5c6cc(OC)c(OC)cc6cc[n+]5C)ccc4O)cc3)c2cc1OC | – | – | > 100 | > 100 | – | – | – | – | – | – | > 100
